Read-outs that look alike come from different tables or passages of the source.
Tests used:
[1] = test system: HHV-2; assay: Plaque reduction assay, simultaneous and post-infection treatment, Vero cells; type: cell-based, Human Herpesvirus 2; conditions: post-infective stages, acyclovir 1.5 µg/mL
Procedure: (§1) To define the stage of the viral replicative cycle where NQ 4 exerts its action, simultaneous and post-infection treatments against HHV-1 and HHV-2 were performed. […] First, we determined the inhibitory concentration 50% (IC50) for the compound and drug positive controls on infected cells and their effects on non-tumoral Vero cells, to define the concentration of evaluation and to calculate the antiviral selectivity index (SI). Then, the concentration of NQ 4 that reduced the number of viral plaques by 50% (EC50) was determined from the dose-response curves.
(§2) The potential antiviral mechanism of NQ 4 was evaluated by the plaque reduction assay as previously described by us. Vero cell monolayers grown in 24-well plates were infected with 100 PFU/well of each virus. For simultaneous treatment, the compound and the virus were added simultaneously to the cell monolayers and incubated for 1 h at 37 °C (5% CO2). Then, cells were washed with phosphate buffered saline (PBS, pH = 7.0) and CMC at 1% and 0.75% was added for HHV-1 and HHV-2, respectively. In post-infection treatment, virus was added to cell monolayer and incubated for 1 h at 37 °C (5% CO2). After incubation, washing was performed with PBS and molecule previously prepared in CMC 1% and 0.75% for HHV-1 and HHV-2 respectively, was added. In both treatments, NQ 4 was prepared at concentrations from 0.4 µg/mL to 3.1 µg/mL and the cell monolayers allowed to incubate for 72 h. Subsequently, cells were fixed and stained with a solution of 3.5% formaldehyde with 0.2% crystal violet, and the viral plaques were counted. Dextran sulfate (DS) was included as positive control in simultaneous assay and acyclovir (A) was the positive control in after infection treatment.

[2] = test system: Human Herpesvirus type 2 (HHV-2); assay: End-point titration technique (EPTT), anti-herpetic screening on infected Vero cells; type: cell-based, Human Herpesvirus 2; conditions: for Rf (reduction factor of the viral titer), HHV-2: 10 TCID50, 48 h; for minimal effective concentration: Human alphaherpesvirus 2, 10 TCID50, 48 h, tested 6.25-50 µg/mL, read-out: 10 TCID50: non-toxic concentration that showed viral reduction factor, HHV-2
Procedure: (§3) The in vitro antiviral evaluation of the 27 substances against Human Herpesvirus type 1 (HHV-1) and 2 (HHV-2) was made on infected Vero cells, using the end-point titration technique (EPTT).
(§4) The antiviral activity of molecules against 1 and 10 Cell Culture Infectious Dose 50% (10TCID50) of HHV-1 and HHV-2, respectively, was determined using end-point titration technique (EPTT). Vero cells grown in 96-well plates at a density of 2.0 × 10^4 cells/well were incubated at 37 °C in 5% CO2 atmosphere until constitute 80% of cell monolayer. Then, viral suspensions of HHV-1 or HHV-2 with concentrations of 6.25 µg/mL to 50 µg/mL of compounds were performed in DMEM supplemented with 2% FBS containing 1% and 0.5% carboxymethylcellulose (CMC) for HHV-1 and HHV-2, respectively. Mixture was incubated during 15 minutes at room temperature and was added to the cell monolayer. After 48 h of incubation at 37 °C (5% CO2), the cytopathic effect was examined, the microplates were fixed with 3.5% formaldehyde and stained with 0.2% crystal violet. Two independent experiments by quadruplicate for each viral serotype and each were carried out. Positive controls, such as dextran sulfate (DS) and acyclovir (A) for early stages and late stages of infection, respectively, were included.

[3] = test system: HHV-1; assay: Plaque reduction assay, simultaneous and post-infection treatment, Vero cells; type: cell-based, Human Herpesvirus 1; conditions: post-infective stages, acyclovir 1.5 µg/mL
Procedure: as §1, §2

[4] = test system: Human Herpesvirus type 1 (HHV-1); assay: End-point titration technique (EPTT), anti-herpetic screening on infected Vero cells; type: cell-based; conditions: for minimal effective concentration: Human alphaherpesvirus 1, 1 TCID50, 48 h, tested 6.25-50 µg/mL, read-out: 1 TCID50: non-toxic concentration that showed viral reduction factor, HHV-1
Procedure: as §3, §4

[5] = test system: Vero; assay: MTT cytotoxicity assay, non-tumor cells; type: cell-based, Cercopithecus aethiops; conditions: Chlorocebus sabaeus
Procedure: The in vitro cytotoxicity evaluation of quinones was performed using the 3-(4,5 dimethylthiazol-2-yl)-2,5-diphenyltetrazolium bromide (MTT, Sigma, Cream Ridge, NJ, USA) assay as described by Betancur-Galvis et al. 2002 [22]. Briefly, Vero and HeLa cell lines were seeded at 2.0 × 10^3 cells per well of 96-well plates in DMEM supplemented with 10% of inactivated FBS, and were incubated for 24 h at 37 °C, 5% CO2. Then, each diluted molecule was added to the cells and incubated for further 48 h at 37 °C, 5% CO2. Jurkat cell line at 3 × 10^3 cells per well in a 96-well round-bottomed plate and diluted substances in RPMI-1640 medium (Sigma) supplemented with 10% FBS were plated simultaneously. After 48 h of treatment at 37 °C, 5% CO2, the media was carefully removed and 28 µL of MTT solution (4 mg/mL) was added to each well, and the plates were incubated for 2 h at 37 °C, 5% CO2. The DMSO was then added to dissolve the formed formazan crystals and absorbance was determined spectrophotometrically at 570 nm.
The minimal dilution of compound that caused 50% inhibition of the cells (IC50) was calculated by linear regression analysis of the dose-response curves generated from the absorbance data with the statistical GraphPad Prisma 5.0. IC50 values were expressed as the mean ± standard deviation (M ± SD) of two independent experiments done in quadruplicate.

[6] = test system: HeLa; assay: MTT cytotoxicity assay; type: cell-based; conditions: Homo sapiens, HeLa ATCC CRL-1958, 48 h, read-out: IC50 ± SD, HeLa
Procedure: (§5) Then, each diluted molecule was added to the cells and incubated for further 48 h at 37 °C, 5% CO2. […] The DMSO was then added to dissolve the formed formazan crystals and absorbance was determined spectrophotometrically at 570 nm. […] IC50 values were expressed as the mean ± standard deviation (M ± SD) of two independent experiments done in quadruplicate.

[7] = test system: Jurkat; assay: MTT cytotoxicity assay; type: cell-based; conditions: Homo sapiens, Jurkat ATCC TIB-152, 48 h, read-out: IC50 ± SD, Jurkat
Procedure: as §5

[8] = test system: DENV-2; design: method as in PMID 20837762; conditions: low concentrations; cited from earlier work
[9] = Vero ATCC CCL-81, 48 h, MTT, read-out: IC50 ± SD, Vero

| SMILES | Antiviral activity in post-infection treatment, HHV-2 [1] | Rf (reduction factor of the viral titer), HHV-2 [2] | minimal effective concentration [2] | Antiviral activity in post-infection treatment, HHV-1 [3] | Rf (reduction factor of the viral titer), HHV-1 ([4]; 1 TCID50, 48 h) | minimal effective concentration [4] | IC50 ([5]; non-tumoral Vero cells, data not shown, read-out: IC50 on Vero cells) | Rf (reduction factor of the viral titer), HHV-2 ([2]; listed as 12) | IC50 [6] | IC50 [7] | IC50 [5, 9] | Activity against DENV-2 at very early stages of the viral replication cycle [8] |
| --- | --- | --- | --- | --- | --- | --- | --- | --- | --- | --- | --- | --- |
| Nc1nc2c(ncn2COCCO)c(=O)[nH]1 [A, Acyclovir, reference compound] | active | 10^4 | 1.5 µg/mL | active | 10^4 | 1.5 µg/mL | > 400 µg/mL |  |  |  |  |  |
| CC1(C)CCCc2cc3c(cc21)C(=O)C(Cl)=C(Cl)C3=O [AQ 12] |  | 1 × 10^2 | 25 µg/mL |  |  | > 50 µg/mL |  | 10^2 | 38.5 ± 1.2 µM | 27.5 ± 0.6 µM | 136 ± 4.4 µM |  |
| COc1cccc2c1C(=O)c1c(O)c3c(c(O)c1C2=O)C[C@@](O)(C(=O)CO)C[C@@H]3O[C@H]1C[C@H](N)[C@H](O)[C@H](C)O1 [Doxorubicin, doxorubicin, reference compound] |  |  |  |  |  |  |  |  | 0.9 ± 0.1 µM | 0.1 ± 0.01 µM | 2 ± 0.1 µM | active |
| Cc1ccc2[nH]c3c(c2c1)C(=O)c1ccc(CCCC(C)C)cc1C3=O [HetQ 19] |  |  |  |  |  |  |  |  | 77 ± 1.9 µM | > 72.4 µM | 212 ± 8.6 µM |  |
| Cc1cc(C)c2c3c(oc2c1)C(=O)c1cc(CCCC(C)C)ccc1C3=O [HetQ 20] |  |  |  |  |  |  |  |  | > 69.3 µM | 42.2 ± 0.7 µM | 153 ± 4.5 µM |  |
| Cc1c2c(nc3ccccc13)C(=O)c1cc(CCCC(C)C)ccc1C2=O [HetQ 21] |  |  |  |  |  |  |  |  | > 69.9 µM | > 69.9 µM |  |  |

Source: paper PMC6479402, “Anti-Herpetic, Anti-Dengue and Antineoplastic Activities of Simple and Heterocycle-Fused Derivatives of Terpenyl-1,4-Naphthoquinone and 1,4-Anthraquinone” (Molecules, 2019)
